Assay results published in US20210269504A1, “PROTEIN-BASED MICELLES FOR THE DELIVERY OF HYDROPHOBIC ACTIVE COMPOUNDS” (priority 2018, published 2021).

Assay: Loading of 2Yx2A micelles with pyraclostrobin (A280 and HPLC quantification)
Format: physicochemical
Procedure: Pyraclostrobin is a highly water-insoluble organic compound that is also a potent fungicide. […] To determine if pyraclostrobin could be taken up into 2Yx2A micelles, pyraclostrobin was added until it saturated a solution of 100 μL of 11 μM (A280: 0.361) 2Yx2A, evidenced by yellow particulates. The solution was then centrifuged and the supernatant was removed and then placed in a fresh tube and centrifuged again. Supernatant removal and centrifugation were repeated 3 times to remove any insoluble pyraclostrobin that has not partitioned into the micelle interior. The solution was then measured with a nanodrop to determine its absorbance at 280 nm resulting in an A280 of 0.502 (+0.141 mAU). Given the pyrene extinction coefficient of 24,000 at A275, this increase in absorbance corresponds to the presence of 5.8 μM pyrene. Similarly, the same sample can be analyzed for pyraclostrobin content via HPLC using a calibration curved developed using known pyrene concentrations in acetonitrile (FIG. 18A). For HPLC analysis the protein-pyraclostrobin solution is diluted to ½ of its volume by pyrene to break apart the micelles. Then a known volume is injected onto the HPLC (FIG. 18B). Based on the area of the pyrene peak and volume injected the number of moles and thus the concentration of pyraclostrobin can be determined. Using this method, 7.37 μM pyraclostrobin is encapsulated in 11 μM of protein.
Instead of directly adding pyraclostrobin to a solution of 2Yx2A micelles an alternative method was used to achieve higher loading efficiency. This method involved the co-resuspension of lyophilized protein and pyraclostrobin in THF which is then slowly diluted with buffer. The solution was then centrifuged and the supernatant was removed and then placed in a fresh tube and centrifuged again. Supernatant removal and centrifugation were repeated 3 times to remove any insoluble pyraclostrobin that has not partitioned into the micelle interior. The sample was then lyophilized to remove all solvent and then resuspended in milliQ water. Although no visible precipitation was observed, the sample was centrifuged to remove any unincorporated pyraclostrobin. For HPLC analysis the protein-pyraclostrobin solution is diluted to ½ of its volume by pyrene to break apart the micelles. Then a known volume is injected onto the HPLC. Based on the area of the pyrene peak and volume injected the number of moles and thus the concentration of pyraclostrobin can be determined.

Compound | Concentration encapsulated in micelles (HPLC) (direct addition to 11 μM 2Yx2A) [µM] | Amount injected on the HPLC (resuspended in water, without 2Yx2A) [nmol] | Amount injected on the HPLC (resuspended with 2Yx2A (THF co-resuspension, 100 mM PB pH 5.7)) [nmol] | Concentration present from increase in A280 (direct addition to 11 μM 2Yx2A, +0.141 absorbance, extinction coefficient 24,000) [µM]
COC(=O)N(OC)c1ccccc1COc1ccn(-c2ccc(Cl)cc2)n1 [pyraclostrobin] | 7.37 | 0.03 | 0.63 | 
c1cc2ccc3cccc4ccc(c1)c2c34 [pyrene] |  |  |  | 5.8
